Patent US20240009123A1, “MULTI-SUPPLEMENT DELIVERY SYSTEM” (priority 2022, published 2024)

How the values were obtained:
[1] = Release of vitamins during tea bag steeping process (UV spectrophotometry); type: physicochemical; settings: for release rate: 4° C., pH 5; for release rate (total amount released): initial 2-minute brewing period, water of pH 5, 4° C., tea bag, spray-dried powder of Example 1
Protocol: To evaluate the release of encapsulated vitamins from the spray-dried powder into water, 30 mg spray-dried powders was placed in the tea bag, which was then immersed in a beaker containing 30 mL of deionized water (pH 5). The beaker was placed in a shaker and shaken slowly in a water bath at 4° C. or 100° C. At appropriate brewing time intervals, an aliquot of solution (0.5 mL) was removed with a pipette for measuring the released vitamins. To determine the amount of water-soluble vitamins, the pH of solution was adjusted to pH 1, followed by filtration (filter pore size 50 μm). […] The release rate was determined by the following equation: release rate (%)=(released vitamins/initially added vitamins)×100.
At appropriate steeping time intervals, an aliquot of solution (0.5 mL) was removed with a pipette for measuring the released vitamins. To determine the amount of water-soluble vitamins, the pH of solution was adjusted to pH 1, followed by filtration (filter pore size 50 μm). The filtrate was then collected and quantified using a UV-spectrophotometer for absorbance. A blank was prepared using deionized water at pH of 1 (adjusted by HCl).
The absorbance of Vitamin B6 was measured at a wavelength of 291 nm. The absorbance of Vitamin B12 was measured at a wavelength of 361 nm.
At appropriate steeping time intervals, an aliquot of solution (0.5 mL) was removed with a pipette for measuring the released vitamins. To determine the amount of oil-soluble vitamins, the pH of the solution was adjusted to a pH of 1, followed by filtration (filter pore size 50 μm). Then, 3 mL organic solvent (chloroform+methanol, 1:1, v/v) was added into the solution to extract the oil-soluble vitamins. After centrifugation at 1000 g for 5 min, the layer of chloroform was removed and quantified using the UV-spectrophotometer for absorbance. A blank was prepared using chloroform.
Using a UV-spectrophotometer, the absorbance of Vitamin A was measured at a wavelength of 326 nm. The absorbance of Vitamin E was measured at a wavelength of 295 nm.

[2] = Surface charge (zeta potential) at pH 5; type: physicochemical
Protocol: A facile, green, and powerful strategy was explored to engineer a robust O/W emulsion for co-delivery of water-soluble vitamins (VC, VB6, VB12) and oil-soluble vitamins (VA, VE). The preparation involved the complexation of chitosan and water-soluble vitamins and subsequent formation of chitosan-stabilized O/W emulsions. The approach is illustrated in FIG. 1A. First, the chitosan-vitamin complexes were prepared by mixing solutions of chitosan, anthocyanins, and water-soluble vitamins in deionized water at pH 5. […] The resulting chitosan-vitamin complexes were mixed with canola oil containing oil-soluble vitamins. After homogenization by ultrasonication, the chitosan-stabilized emulsions can form as optically opaque homogenous suspensions. In the ultrasonication process, the chitosan-vitamin complexes tended to coat on the surface of oil droplets, providing a physical layer for stabilization of oil-soluble vitamins. […] The value of the zeta potential (mV) indicates the degree of electrostatic repulsion and is the indicator/predictor of the stability of the dispersed particles. The absolute value difference of positive and negative electrostatic charges, measured in mV, between vitamins and chitosan is not the only factor that keeps the vitamins on the interface.

Row | Molecule | release rate ([1]; at 5 min) | charge [2] | release rate (total amount released) [1] | release rate ([1]; at 10 min)
1 | CCCCCCCCCCCCCCCC(=O)OC/C=C(C)/C=C/C=C(C)/C=C/C1=C(C)CCCC1(C)C [VA, retinol palmitate] | 84.0% | negatively charged |  | 
2 | tocopherols, mixed, FG [VE] |  |  |  | 80.4%
3 | O=C1O[C@H]([C@@H](O)CO)C(O)=C1O [VC, Vitamin C] |  | negatively charged | 96.5% | 
4 | anthocyanin [anthocyanins] |  | negatively charged |  | 

Continued, values first:

Row | release rate ([1]; at 5 min) | charge [2] | release rate (total amount released) [1] | release rate ([1]; at 10 min) | Molecule
5 |  | negatively charged | 98.8% |  | Vitamin B6 [VB6]
6 |  | slightly positively charged | 100% |  | Vitamin B12 [VB12]
